One may read the inhibition as the change of the read-out against control, counted positive when it falls. By pKi is commonly meant the Ki on a negative log10 scale, so that one unit is a factor of ten.

Consider 2 compounds from ChEMBL document CHEMBL4507265 (2021).

Series [1] concerns the target Sodium-dependent dopamine transporter (Homo sapiens) (UniProt Q01959). The following applies: Compound concentration 10.0 uM.
The species named for series [2] is Rattus norvegicus. In words: Inhibition of Imidazoline I2, Central at 10 µM in the Eurofins-Panlabs radioligand binding assay (Eurofins_assay_241000). More on the design: ligand concentration 2 nM. The following applies: Compound concentration 10.0 uM.
In series [3] the target is L-type calcium channel, benzothiazepine site (Cav1.2 alpha-1C) (Homo sapiens, UniProt Q13936). As to the kind of experiment: Inhibition of Calcium Channel L-Type, Benzothiazepine at 10 µM in the Eurofins-Panlabs radioligand binding assay (Eurofins_assay_214510). On the set-up: ligand concentration 2 nM, non-specific ligand with concentration 10 µM Diltiazem, incubation time 3h, incubation temperature 4 °C. The settings on record: male, Wistar, rat, rat whole brain preparation, probe [3H] Diltiazem, 2 nM; compound concentration 10 uM; target entry is the homologue from another species.

For series [4], the target named is T1, GABA-A receptor; anion channel (Rattus norvegicus) (UniProt O09028+P15431+P18506+P18508+P19969+P20236+P23574+P23576+P28471+P28473+P30191+P62813+P63079+P63138+Q91ZM7+Q9ES14). The settings on record: Compound concentration 10.0 uM.
The target of series [5] is Beta-2 adrenergic receptor (Homo sapiens) (UniProt P07550). The following applies: Compound concentration 10.0 uM.
Series [6] has the same target. The settings on record: Compound concentration 10.0 uM. This is another data set of the same source.
Series [7] concerns the target Epidermal growth factor receptor (Homo sapiens) (UniProt P00533). As to the kind of experiment: Inhibition of Epidermal Growth Factor (EGF) at 10 µM in the Eurofins-Panlabs radioligand binding assay (Eurofins_assay_225510). The following applies: Compound concentration 10.0 uM.
The target of series [8] is voltage-gated sodium channel, site 2 (Rattus norvegicus, UniProt F1LQQ7+O08562+O88420+O88457+P04774+P04775+P08104+P15389+P15390+Q62968). In words: Inhibition of Sodium Channel, Site 2 at 10 µM in the Eurofins-Panlabs radioligand binding assay (Eurofins_assay_279510). The following applies: male, Wistar, rat whole brain (except cerebellum) membranes, probe [3H] Batrachotoxinin, 5 nM, compound concentration 10 uM. In kind it is protein assay. On the set-up: ligand concentration 5 nM, non-specific ligand with concentration 100 µM Veratridine, incubation time 60 min, incubation temperature 37 °C.

Series [9] addresses T2, Alpha-1D adrenergic receptor (Homo sapiens) (UniProt P25100).
T2 sequence (whole entry): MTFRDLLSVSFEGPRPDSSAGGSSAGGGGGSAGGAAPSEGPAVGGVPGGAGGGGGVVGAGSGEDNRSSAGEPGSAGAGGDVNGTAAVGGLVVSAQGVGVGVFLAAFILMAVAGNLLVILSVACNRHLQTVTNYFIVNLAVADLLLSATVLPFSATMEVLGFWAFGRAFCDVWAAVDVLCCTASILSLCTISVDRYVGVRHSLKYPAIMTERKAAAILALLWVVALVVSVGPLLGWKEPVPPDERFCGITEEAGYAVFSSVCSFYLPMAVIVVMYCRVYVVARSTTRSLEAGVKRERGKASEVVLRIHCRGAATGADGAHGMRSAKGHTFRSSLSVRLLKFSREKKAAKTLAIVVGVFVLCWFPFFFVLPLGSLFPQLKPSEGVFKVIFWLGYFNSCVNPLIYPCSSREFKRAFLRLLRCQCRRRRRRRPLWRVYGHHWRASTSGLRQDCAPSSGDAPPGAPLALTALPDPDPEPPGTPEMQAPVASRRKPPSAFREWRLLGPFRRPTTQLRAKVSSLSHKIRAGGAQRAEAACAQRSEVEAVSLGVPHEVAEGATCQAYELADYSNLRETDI
As to the kind of experiment: Inhibition of Adrenergic alpha1D at 10 µM in the Eurofins-Panlabs radioligand binding assay (Eurofins_assay_203400). The settings on record: Compound concentration 10.0 uM.

Series [10] is filed under the species Rattus norvegicus. In words: Testosterone Eurofins-Panlabs radioligand binding assay. The settings on record: Compound concentration 10.0 uM. More on the design: ligand concentration 1.5 nM.
For series [11], the species on record is Rattus norvegicus. The settings on record: Compound concentration 10.0 uM.
Series [12] addresses Endothelin-1 receptor (Homo sapiens) (UniProt P25101). The settings on record: Compound concentration 10.0 uM.
Series [13] has as its target Glucocorticoid receptor (Homo sapiens) (UniProt P04150). In words: Glucocorticoid Eurofins-Panlabs radioligand binding assay. The settings on record: Compound concentration 10.0 uM.
The target of series [14] is Sigma non-opioid intracellular receptor 1 (Homo sapiens) (UniProt Q99720). As to the kind of experiment: Sigma 1 Eurofins-Panlabs radioligand binding assay. More on the design: ligand concentration 8 nM. The following applies: Compound concentration 10.0 uM.
For series [15], the species on record is Rattus norvegicus. In words: Inhibition of Thyroid Hormone at 10 µM in the Eurofins-Panlabs radioligand binding assay (Eurofins_assay_285900). The format is protein assay. The settings on record: Compound concentration 10.0 uM.
The target in series [16] is Sodium-dependent serotonin transporter (Homo sapiens) (UniProt P31645). The following applies: Compound concentration 10.0 uM.
Series [17] addresses Histamine H3 receptor (Homo sapiens) (UniProt Q9Y5N1). The following applies: Compound concentration 10.0 uM.
The target in series [18] is Neuropeptide Y receptor type 1 (Homo sapiens) (UniProt P25929). In words: Inhibition of Neuropeptide Y Y1 at 10 µM in the Eurofins-Panlabs radioligand binding assay (Eurofins_assay_257010). The following applies: Compound concentration 10.0 uM.
The target of series [19] is Beta-1 adrenergic receptor (Homo sapiens) (UniProt P08588). The following applies: Compound concentration 10.0 uM.
The target in series [20] is Alpha-2B adrenergic receptor (Homo sapiens, UniProt P18089). As to the kind of experiment: GPCRScan assay: inhibition of Alpha2B. On the set-up: radioligand conc. used [nm] 1.5 – 2.0, parental cells HEKT.
The species named for another series is Mus musculus. As to the kind of experiment: Inhibition of Phorbol Ester at 10 µM in the Eurofins-Panlabs radioligand binding assay (Eurofins_assay_264500). More on the design: ligand concentration 3 nM. The settings on record: Compound concentration 10.0 uM.
In series [21] the target is L-type calcium channel, dihydropyridine site (Cav1.2 alpha-1C) (Homo sapiens, UniProt Q13936). As to the kind of experiment: Inhibition of Calcium Channel L-Type, Dihydropyridine at 10 µM in the Eurofins-Panlabs radioligand binding assay (Eurofins_assay_214600). The settings on record: Wistar, rat, rat cerebral cortex preparation, probe [3H] Nitrendipine, 0.1 nM; compound concentration 10 uM; target entry is the homologue from another species. More on the design: ligand concentration 0.1 nM, non-specific ligand with concentration 1 µM Nitrendipine, incubation time 90 min, incubation temperature 25 °C.

The target of a further series is hERG (KCNH2) (Homo sapiens, UniProt Q12809). As to the kind of experiment: Inhibition of Potassium Channel hERG at 10 µM in the Eurofins-Panlabs radioligand binding assay (Eurofins_assay_265900). The following applies: HEK-293 cells that express recombinant human hERG, probe [3H] Astemizole, 1.5 nM, compound concentration 10 uM. On the set-up: ligand concentration 1.5 nM, non-specific ligand with concentration Astemizole, incubation time 60 min, incubation temperature 25 °C.

The target in series [22] is Cysteinyl leukotriene receptor 1 (Homo sapiens) (UniProt Q9Y271). As to the kind of experiment: Inhibition of Leukotriene, Cysteinyl CysLT1 at 10 µM in the Eurofins-Panlabs radioligand binding assay (Eurofins_assay_250460). The following applies: Compound concentration 10.0 uM. More on the design: ligand concentration 0.3 nM, non-specific ligand with concentration 0.3 µM Leukotriene D4, incubation time 30 min, incubation temperature 25 °C.

Series [23] concerns the target T1, GABA-A receptor; anion channel (Rattus norvegicus). In words: Inhibition of GABAA, Muscimol, Central at 10 µM in the Eurofins-Panlabs radioligand binding assay (Eurofins_assay_226500). The following applies: Compound concentration 10.0 uM. The format is protein-complex assay.
Series [24] deals with Gamma-aminobutyric acid type B receptor subunit 1 (Homo sapiens) (UniProt Q9UBS5). As to the kind of experiment: Inhibition of GABAB1A at compound concentration of 10.0 uM in the Eurofins-Panlabs radioligand binding assay (Eurofins_assay_228610). More on the design: ligand concentration 4 nM. The following applies: Compound concentration 10.0 uM.
Series [25] can be described thus: GPCRScan assay: inhibition of GABA/PBR. More on the design: species or system Rattus norvegicus; radioligand conc. used [nm] 0.3 – 2.0, parental cells brain tissue.

Beta-2 adrenergic receptor (Homo sapiens), sequence (P07550 whole entry, looked up): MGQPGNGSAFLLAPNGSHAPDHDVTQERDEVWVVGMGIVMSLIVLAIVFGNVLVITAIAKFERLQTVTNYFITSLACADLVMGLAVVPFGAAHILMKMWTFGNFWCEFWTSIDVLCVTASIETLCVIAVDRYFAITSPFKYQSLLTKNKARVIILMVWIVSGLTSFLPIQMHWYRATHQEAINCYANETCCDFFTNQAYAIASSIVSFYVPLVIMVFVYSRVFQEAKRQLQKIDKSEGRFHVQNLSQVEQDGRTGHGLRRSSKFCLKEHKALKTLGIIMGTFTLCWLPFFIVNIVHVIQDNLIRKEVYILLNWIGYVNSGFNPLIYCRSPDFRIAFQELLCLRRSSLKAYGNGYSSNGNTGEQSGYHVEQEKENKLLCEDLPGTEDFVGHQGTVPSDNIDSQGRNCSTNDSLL
Alpha-2B adrenergic receptor, sequence (P18089 whole entry): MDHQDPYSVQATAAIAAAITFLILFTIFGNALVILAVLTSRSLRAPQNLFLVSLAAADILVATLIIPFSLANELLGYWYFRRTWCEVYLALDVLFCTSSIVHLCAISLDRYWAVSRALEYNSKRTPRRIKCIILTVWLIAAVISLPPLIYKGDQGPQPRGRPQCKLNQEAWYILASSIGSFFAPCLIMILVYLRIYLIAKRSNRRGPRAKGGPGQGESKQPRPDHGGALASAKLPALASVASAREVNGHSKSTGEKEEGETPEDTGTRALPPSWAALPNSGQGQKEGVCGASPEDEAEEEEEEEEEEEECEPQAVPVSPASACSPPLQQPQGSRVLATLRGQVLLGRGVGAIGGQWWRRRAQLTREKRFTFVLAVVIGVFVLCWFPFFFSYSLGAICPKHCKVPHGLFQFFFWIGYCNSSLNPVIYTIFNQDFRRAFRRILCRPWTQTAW
Beta-1 adrenergic receptor (Homo sapiens), sequence (P08588 whole entry, looked up): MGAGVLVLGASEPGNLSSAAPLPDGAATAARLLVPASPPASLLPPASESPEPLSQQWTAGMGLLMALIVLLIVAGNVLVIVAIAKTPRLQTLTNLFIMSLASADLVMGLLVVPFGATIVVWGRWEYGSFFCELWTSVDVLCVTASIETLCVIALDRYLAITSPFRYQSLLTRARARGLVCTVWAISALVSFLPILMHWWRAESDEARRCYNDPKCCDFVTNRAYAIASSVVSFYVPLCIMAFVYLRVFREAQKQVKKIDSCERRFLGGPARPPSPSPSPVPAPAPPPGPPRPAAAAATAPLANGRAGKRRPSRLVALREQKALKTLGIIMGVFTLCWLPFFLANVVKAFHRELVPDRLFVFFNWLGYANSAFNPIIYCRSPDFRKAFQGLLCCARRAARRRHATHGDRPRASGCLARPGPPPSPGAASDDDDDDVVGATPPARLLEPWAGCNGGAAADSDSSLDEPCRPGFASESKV
Gamma-aminobutyric acid type B receptor subunit 1 (Homo sapiens), sequence (Q9UBS5 whole entry): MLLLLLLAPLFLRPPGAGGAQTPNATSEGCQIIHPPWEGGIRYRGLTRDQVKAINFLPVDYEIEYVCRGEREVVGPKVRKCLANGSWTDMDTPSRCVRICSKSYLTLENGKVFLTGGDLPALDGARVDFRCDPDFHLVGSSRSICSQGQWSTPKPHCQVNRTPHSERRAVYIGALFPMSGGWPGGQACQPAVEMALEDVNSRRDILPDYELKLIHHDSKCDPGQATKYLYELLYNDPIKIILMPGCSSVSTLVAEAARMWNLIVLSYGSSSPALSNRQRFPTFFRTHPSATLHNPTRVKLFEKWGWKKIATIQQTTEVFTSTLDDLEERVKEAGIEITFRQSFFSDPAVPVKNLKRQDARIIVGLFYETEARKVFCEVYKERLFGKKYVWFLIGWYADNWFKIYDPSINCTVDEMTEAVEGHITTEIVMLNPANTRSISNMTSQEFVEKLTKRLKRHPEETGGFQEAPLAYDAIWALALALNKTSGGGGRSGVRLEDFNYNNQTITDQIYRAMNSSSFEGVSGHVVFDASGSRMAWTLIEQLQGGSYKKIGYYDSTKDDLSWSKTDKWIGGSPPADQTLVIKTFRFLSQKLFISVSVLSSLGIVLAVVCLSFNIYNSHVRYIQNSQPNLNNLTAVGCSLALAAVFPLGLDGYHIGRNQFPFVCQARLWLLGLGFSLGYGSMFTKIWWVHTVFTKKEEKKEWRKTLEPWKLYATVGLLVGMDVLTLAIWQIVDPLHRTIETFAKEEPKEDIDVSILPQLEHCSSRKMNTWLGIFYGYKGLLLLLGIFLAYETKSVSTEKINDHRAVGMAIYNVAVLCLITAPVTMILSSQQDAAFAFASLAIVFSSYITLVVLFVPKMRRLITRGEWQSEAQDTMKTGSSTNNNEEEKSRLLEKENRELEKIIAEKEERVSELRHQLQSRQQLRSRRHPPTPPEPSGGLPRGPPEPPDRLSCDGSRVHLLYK
Histamine H3 receptor (Homo sapiens), sequence (Q9Y5N1 whole entry): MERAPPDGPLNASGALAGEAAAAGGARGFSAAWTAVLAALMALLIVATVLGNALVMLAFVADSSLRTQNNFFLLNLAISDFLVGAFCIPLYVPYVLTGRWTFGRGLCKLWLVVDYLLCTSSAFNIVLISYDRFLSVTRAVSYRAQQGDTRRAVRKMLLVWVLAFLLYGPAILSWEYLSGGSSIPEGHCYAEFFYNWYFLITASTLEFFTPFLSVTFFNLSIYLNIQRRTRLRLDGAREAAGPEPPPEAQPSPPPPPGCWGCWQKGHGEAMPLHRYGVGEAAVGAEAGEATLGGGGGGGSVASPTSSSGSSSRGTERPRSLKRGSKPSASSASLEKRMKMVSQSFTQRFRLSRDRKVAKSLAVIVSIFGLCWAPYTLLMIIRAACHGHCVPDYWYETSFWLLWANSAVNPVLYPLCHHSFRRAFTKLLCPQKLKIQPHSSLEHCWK
Epidermal growth factor receptor (Homo sapiens), sequence (P00533 whole entry): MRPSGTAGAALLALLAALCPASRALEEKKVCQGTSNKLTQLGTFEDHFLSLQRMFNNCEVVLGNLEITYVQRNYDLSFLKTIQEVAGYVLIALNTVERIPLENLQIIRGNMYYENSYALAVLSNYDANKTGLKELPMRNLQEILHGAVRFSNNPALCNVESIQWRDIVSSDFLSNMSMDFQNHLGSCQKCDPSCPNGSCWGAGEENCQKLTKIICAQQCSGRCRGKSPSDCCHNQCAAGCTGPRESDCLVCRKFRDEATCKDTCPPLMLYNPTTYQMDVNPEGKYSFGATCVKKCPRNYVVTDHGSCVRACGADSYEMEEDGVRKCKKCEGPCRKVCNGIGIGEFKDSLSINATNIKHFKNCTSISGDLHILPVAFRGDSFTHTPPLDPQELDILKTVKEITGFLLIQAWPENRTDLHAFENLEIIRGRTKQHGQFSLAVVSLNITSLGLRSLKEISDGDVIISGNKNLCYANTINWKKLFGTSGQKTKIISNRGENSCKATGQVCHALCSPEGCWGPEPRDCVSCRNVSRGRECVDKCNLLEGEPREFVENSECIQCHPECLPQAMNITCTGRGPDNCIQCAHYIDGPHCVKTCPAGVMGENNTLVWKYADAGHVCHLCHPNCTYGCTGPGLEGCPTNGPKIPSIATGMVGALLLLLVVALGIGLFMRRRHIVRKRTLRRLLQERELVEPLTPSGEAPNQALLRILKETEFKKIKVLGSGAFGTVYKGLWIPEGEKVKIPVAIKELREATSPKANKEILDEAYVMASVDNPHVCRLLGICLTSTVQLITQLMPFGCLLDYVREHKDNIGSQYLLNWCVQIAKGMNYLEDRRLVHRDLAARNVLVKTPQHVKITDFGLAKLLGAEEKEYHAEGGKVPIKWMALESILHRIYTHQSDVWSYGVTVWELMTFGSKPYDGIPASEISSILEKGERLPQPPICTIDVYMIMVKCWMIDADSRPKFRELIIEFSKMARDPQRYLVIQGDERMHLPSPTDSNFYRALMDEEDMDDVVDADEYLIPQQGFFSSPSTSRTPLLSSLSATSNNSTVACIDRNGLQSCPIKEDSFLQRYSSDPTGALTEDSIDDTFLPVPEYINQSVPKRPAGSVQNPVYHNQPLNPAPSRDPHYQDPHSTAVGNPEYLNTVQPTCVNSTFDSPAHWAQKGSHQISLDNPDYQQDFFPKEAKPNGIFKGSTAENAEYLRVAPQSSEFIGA
Endothelin-1 receptor (Homo sapiens), sequence (P25101 whole entry): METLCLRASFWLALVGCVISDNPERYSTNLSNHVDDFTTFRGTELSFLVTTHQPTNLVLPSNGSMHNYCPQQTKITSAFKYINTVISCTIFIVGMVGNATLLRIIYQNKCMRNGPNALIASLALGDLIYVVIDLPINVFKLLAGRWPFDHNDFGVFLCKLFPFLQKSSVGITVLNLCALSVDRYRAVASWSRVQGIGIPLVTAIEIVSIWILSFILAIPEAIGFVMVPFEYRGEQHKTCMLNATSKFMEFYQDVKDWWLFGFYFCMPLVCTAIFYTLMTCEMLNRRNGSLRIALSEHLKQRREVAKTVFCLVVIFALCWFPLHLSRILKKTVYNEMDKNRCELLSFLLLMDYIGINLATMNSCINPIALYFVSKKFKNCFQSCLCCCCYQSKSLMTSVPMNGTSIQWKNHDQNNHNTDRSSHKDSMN
Sodium-dependent dopamine transporter (Homo sapiens), sequence (Q01959 whole entry): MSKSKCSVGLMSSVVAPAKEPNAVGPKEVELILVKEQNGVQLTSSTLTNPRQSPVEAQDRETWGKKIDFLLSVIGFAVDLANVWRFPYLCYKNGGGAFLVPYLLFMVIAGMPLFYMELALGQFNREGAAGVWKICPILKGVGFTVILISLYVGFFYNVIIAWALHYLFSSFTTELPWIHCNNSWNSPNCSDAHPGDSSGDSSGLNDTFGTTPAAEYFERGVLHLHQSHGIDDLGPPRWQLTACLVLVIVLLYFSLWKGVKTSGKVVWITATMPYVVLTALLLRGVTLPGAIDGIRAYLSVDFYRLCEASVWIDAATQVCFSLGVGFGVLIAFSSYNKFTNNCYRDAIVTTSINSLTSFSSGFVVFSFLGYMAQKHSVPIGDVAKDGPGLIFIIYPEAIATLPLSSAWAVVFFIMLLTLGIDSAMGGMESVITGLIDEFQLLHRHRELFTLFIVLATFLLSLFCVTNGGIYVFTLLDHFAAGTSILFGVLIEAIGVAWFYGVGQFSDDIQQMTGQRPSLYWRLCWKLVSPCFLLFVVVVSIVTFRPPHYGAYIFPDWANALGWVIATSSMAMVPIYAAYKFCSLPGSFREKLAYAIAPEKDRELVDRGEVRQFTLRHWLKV

`NS(=O)(=O)c1cc(NC(=O)Cc2ccccc2)ccc1Oc1cccc(Cl)c1` [BAY-1797]: the inhibition in series [1] was 37%; in the series listed under Rattus norvegicus [2], 10%; in series [4], 0%; in series [5], 18.9%; in [6], 2%; in series [7], 2%. The inhibition is 5% in [9]; 17% in the series filed under Rattus norvegicus [10]; -10% in the series listed under Rattus norvegicus [11]; 3% in series [12]; 20% in series [13]; 19% in series [14]. For the same compound, the inhibition in the series listed under Rattus norvegicus [15] was 2%; in [16] it was 4%; in [17] it was 0%; in series [18] it was 9%; in series [19], 3%; in the series listed under Mus musculus it was 4%. Also, the inhibition in series [22] was 8%; in series [23], 15%; in [24] it was 14%. Further, the inhibition at 3 h, 10 µM in [3] was 17% (not active). Besides, the inhibition at 60 min, 10 µM in series [8] was 57%; on hERG (KCNH2), 8% (not active). Besides, the Ki in [20] (read-out: Ki) was 4.29 µM; in series [20] (read-out: pKi (converted)) it was 4.32 µM. In series [21], the inhibition at 90 min, 10 µM is 21% (not active).

`NS(=O)(=O)c1cc(NC(=O)C2(c3ccccc3Cl)CC2)ccc1Oc1cccc(Cl)c1` [BAY-207]: in series [25], the Ki was found to be 250 nM and the pKi was determined as 6.62.
